Assay results from patent US11596639B2, “Substituted indole Mcl-1 inhibitors” (Vanderbilt University, priority 2016, dated 2023).
pKi: −log10 of the molar value. Read-outs that look alike come from different tables or passages of the source.

Assays:
[1] = target: Mcl-1 (Homo sapiens (Human), UniProt Q07820); experiment: TR-FRET binding assay, FITC-Bak peptide and MBP-tagged Mcl-1; details: read-out: Ki for Inhibition of Mcl-1 by TR-FRET assay
Protocol: Compounds are diluted in DMSO in a 16-point, semilog serial dilution scheme. […] The plate was mixed and incubated for 3 hours at room temperature. […] TR-FRET signal is plotted and IC50 and Ki values are calculated in the same manner as the fluorescence polarization anisotropy based competition assays.

[2] = system: H929 human cancer cell lines; experiment: Cellular viability / proliferation (Cell TiterGlo, 72 h); format: cell-based
Method in brief: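 H929 cells plated at 1,000/well in 10% FBS medium received a 2-fold serial compound dilution (top 50 μM, DMSO <1%) 24 h later. After 72 h, viability was read by CellTiter-Glo luminescence. IC50 came from a four-parameter fit.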

[3] = Homo sapiens, NCI-H929, 72 h, read-out: GI50 on cellular proliferation of H929 human cancer cell lines, H929 cells, 72 h, Cell TiterGlo, 10% FBS

Mcl-1, sequence (Q07820 172-327): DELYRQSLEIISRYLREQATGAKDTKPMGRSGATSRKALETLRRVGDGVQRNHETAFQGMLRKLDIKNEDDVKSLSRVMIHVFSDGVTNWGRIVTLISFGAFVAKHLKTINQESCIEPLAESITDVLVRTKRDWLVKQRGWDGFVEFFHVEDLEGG

SMILES: Cc1cc(OCCCc2c3n(c4c(-c5c(C)nn(C)c5C)c(Cl)ccc24)[C@H](C)CN(c2cc(CO)cc4c(C(=O)O)cn(C)c24)C3=O)cc(C)c1Cl [Example 506, (R)-7-(7-Chloro-10-(3-(4-chloro-3,5-dimethylphenoxy)propyl)-4-methyl-1-oxo-6-(1,3,5-trimethyl-1H-pyrazol-4-yl)-3,4-dihydropyrazino[1,2-a]indol-2(1H)-yl)-5-(hydroxymethyl)-1-methyl-1H-indole-3-carboxylic acid]
- pKi [1]: > 9.70
- GI50 [2, 3]: 1.3 µM

SMILES: Cc1cc(OCCCc2c3n(c4c(-c5c(C)cc(O)cc5C)c(Cl)ccc24)[C@H](C)CNC3=O)cc(C)c1Cl [Example 488, (R)-7-chloro-10-(3-(4-chloro-3,5-dimethylphenoxy)propyl)-6-(4-hydroxy-2,6-dimethylphenyl)-4-methyl-3,4-dihydropyrazino[1,2-a]indol-1(2H)-one]
- pKi [1]: 7.41
- GI50 [2, 3]: 8.7 µM

SMILES: Cc1cc(C)nc(Cn2c(C(=O)O)cc3cc(C)cc(N4C[C@@H](C)n5c(c(CCCOc6cc(C)c(Cl)c(C)c6)c6ccc(Cl)c(-c7c(C)nn(C)c7C)c65)C4=O)c32)c1 [Example 599, (R)-7-(7-chloro-10-(3-(4-chloro-3,5-dimethylphenoxy)propyl)-4-methyl-1-oxo-6-(1,3,5-trimethyl-1H-pyrazol-4-yl)-3,4-dihydropyrazino[1,2-a]indol-2(1H)-yl)-1-((4,6-dimethylpyridin-2-yl)methyl)-5-methyl-1H-indole-2-carboxylic acid]
- pKi [1]: > 9.70
- GI50 [2, 3]: < 0.2 µM

SMILES: Cc1cc(OCCCc2c3n(c4c(-c5c(C)cc(O)cc5C)c(Cl)ccc24)[C@H](C)CN(c2cn(C)c4ccc(C(=O)O)cc24)C3=O)cc(C)c1Cl [Example 496, (R)-3-(7-chloro-10-(3-(4-chloro-3,5-dimethylphenoxy)propyl)-6-(4-hydroxy-2,6-dimethylphenyl)-4-methyl-1-oxo-3,4-dihydropyrazino[1,2-a]indol-2(1H)-yl)-1-methyl-1H-indole-5-carboxylic acid]
- pKi [1]: 9.19
- GI50 [2, 3]: 1.2 µM

SMILES: Cc1cc(OCCCc2c3n(c4c(-c5c(C)nn(C)c5C)c(Cl)ccc24)[C@H](C)CN(c2cn(Cc4ccccn4)c4ccc(C(=O)O)cc24)C3=O)cc(C)c1Cl [Example 561, (R)-3-(7-chloro-10-(3-(4-chloro-3,5-dimethylphenoxy)propyl)-4-methyl-1-oxo-6-(1,3,5-trimethyl-1H-pyrazol-4-yl)-3,4-dihydropyrazino[1,2-a]indol-2(1H)-yl)-1-(pyridin-2-ylmethyl)-1H-indole-5-carboxylic acid]
- pKi [1]: > 9.70
- GI50 [2, 3]: 0.51 µM

SMILES: COCCn1cc(N2C[C@@H](C)n3c(c(CCCOc4cc(C)c(Cl)c(C)c4)c4ccc(Cl)c(-c5c(C)nn(C)c5C)c43)C2=O)c2cc(-c3ncn(CCN4CCOCC4)n3)ccc21 [Example 615, (R)-7-Chloro-10-(3-(4-chloro-3,5-dimethylphenoxy)propyl)-2-(1-(2-methoxyethyl)-5-(1-(2-morpholinoethyl)-1H-1,2,4-triazol-3-yl)-1H-indol-3-yl)-4-methyl-6-(1,3,5-trimethyl-1H-pyrazol-4-yl)-3,4-dihydropyrazino[1,2-a]indol-1(2H)-one]
- pKi [1]: 8.02
- GI50 [2, 3]: 0.37 µM

SMILES: Cc1cc(OCCCc2c3n(c4c(-c5c(C)nn(C)c5C)c(Cl)ccc24)[C@H](C)CN(c2cn(CC4CCN(C)C4)c4ccc(C(=O)O)cc24)C3=O)cc(C)c1Cl (stereo partly drawn) [Example 534, 3-((R)-7-Chloro-10-(3-(4-chloro-3,5-dimethylphenoxy)propyl)-4-methyl-1-oxo-6-(1,3,5-trimethyl-1H-pyrazol-4-yl)-3,4-dihydropyrazino[1,2-a]indol-2(1H)-yl)-1-((1-methylpyrrolidin-3-yl)methyl)-1H-indole-5-carboxylic acid]
- pKi [1]: > 9.70
- GI50 [2, 3]: 0.52 µM

SMILES: COCCn1c(C(=O)O)cc2c(OC)ccc(N3C[C@@H](C)n4c(c(CCCOc5cc(C)c(Cl)c(C)c5)c5ccc(Cl)c(-c6c(C)ncnc6C)c54)C3=O)c21 [Example 493, (R)-7-(7-chloro-10-(3-(4-chloro-3,5-dimethylphenoxy)propyl)-6-(4,6-dimethylpyrimidin-5-yl)-4-methyl-1-oxo-3,4-dihydropyrazino[1,2-a]indol-2(1H)-yl)-4-methoxy-1-(2-methoxyethyl)-1H-indole-2-carboxylic acid]
- pKi [1]: > 9.70
- GI50 [2, 3]: < 0.2 µM

SMILES: Cc1cc(OCCCc2c3n(c4c(-c5c(C)nc(CN6CCN(C)CC6)nc5C)c(Cl)ccc24)[C@H](C)CN(c2cn(C)c4ccc(-c5ncn(C)n5)cc24)C3=O)cc(C)c1Cl [Example 502, (R)-7-chloro-10-(3-(4-chloro-3,5-dimethylphenoxy)propyl)-6-(4,6-dimethyl-2-((4-methylpiperazin-1-yl)methyl)pyrimidin-5-yl)-4-methyl-2-(1-methyl-5-(1-methyl-1H-1,2,4-triazol-3-yl)-1H-indol-3-yl)-3,4-dihydropyrazino[1,2-a]indol-1(2H)-one]
- pKi [1]: 8.54
- GI50 [2, 3]: < 0.2 µM

SMILES: Cc1cc(OCCCc2c3n(c4c(-c5c(C)nn(C)c5C)c(Cl)ccc24)[C@H](C)CN(c2cc(OC4CCN(C)C4)cc4cc(C(=O)O)n(C)c24)C3=O)cc(C)c1Cl (stereo partly drawn) [Example 521, 7-((R)-7-chloro-10-(3-(4-chloro-3,5-dimethylphenoxy)propyl)-4-methyl-1-oxo-6-(1,3,5-trimethyl-1H-pyrazol-4-yl)-3,4-dihydropyrazino[1,2-a]indol-2(1H)-yl)-1-methyl-5-((1-methylpyrrolidin-3-yl)oxy)-1H-indole-2-carboxylic acid]
- pKi [1]: > 9.70
- GI50 [2, 3]: 0.61 µM

SMILES: Cc1cc(OCCCc2c3n(c4c(-c5c(C)nn(C)c5C)c(Cl)ccc24)[C@H](C)CN(c2cc(CN4CCOCC4)cc4c(C(=O)O)cn(C)c24)C3=O)cc(C)c1Cl [Example 549, (R)-7-(7-chloro-10-(3-(4-chloro-3,5-dimethylphenoxy)propyl)-4-methyl-1-oxo-6-(1,3,5-trimethyl-1H-pyrazol-4-yl)-3,4-dihydropyrazino[1,2-a]indol-2(1H)-yl)-1-methyl-5-(morpholinomethyl)-1H-indole-3-carboxylic acid]
- pKi [1]: 9.47
- GI50 [2, 3]: 0.34 µM

SMILES: Cc1cc(OCCCc2c3n(c4c(-c5c(C)nn(C)c5C)c(Cl)ccc24)[C@H](C)CN(c2cn(C)c4ccc(-n5nccn5)nc24)C3=O)cc(C)c1Cl [Example 664, (R)-7-Chloro-10-(3-(4-chloro-3,5-dimethylphenoxy)propyl)-4-methyl-2-(1-methyl-5-(2H-1,2,3-triazol-2-yl)-1H-pyrrolo[3,2-b]pyridin-3-yl)-6-(1,3,5-trimethyl-1H-pyrazol-4-yl)-3,4-dihydropyrazino[1,2-a]indol-1(2H)-one]
- pKi [1]: 9.19
- GI50 [2, 3]: 0.58 µM

SMILES: COc1cc(N2C[C@@H](C)n3c(c(CCCOc4cc(C)c(Cl)c(C)c4)c4ccc(Cl)c(-c5c(C)ncnc5C)c43)C2=O)c2c(c1)cc(C(=O)O)n2Cc1cc(C)ccn1 [Example 565, (R)-7-(7-chloro-10-(3-(4-chloro-3,5-dimethylphenoxy)propyl)-6-(4,6-dimethylpyrimidin-5-yl)-4-methyl-1-oxo-3,4-dihydropyrazino[1,2-a]indol-2(1H)-yl)-5-methoxy-1-((4-methylpyridin-2-yl)methyl)-1H-indole-2-carboxylic acid]
- pKi [1]: > 9.70
- GI50 [2, 3]: < 0.2 µM

SMILES: Cc1cc(OCCCc2c3n(c4c(-c5c(C)nn(C)c5C)c(Cl)ccc24)[C@H](C)CN(c2cc(CN4CCCC4)cc4c(C(=O)O)cn(C)c24)C3=O)cc(C)c1Cl [Example 550, (R)-7-(7-chloro-10-(3-(4-chloro-3,5-dimethylphenoxy)propyl)-4-methyl-t-oxo-6-(1,3,5-trimethyl-1H-pyrazol-4-yl)-3,4-dihydropyrazino[1,2-a]indol-2(1H)-yl)-1-methyl-5-(pyrrolidin-1-ylmethyl)-1H-indole-3-carboxylic acid]
- pKi [1]: 9.28
- GI50 ([2]; H929 cells, 72 h, Cell TiterGlo, 10% FBS, read-out: GI50 on cellular proliferation of H929 human cancer cell lines): 1.2 µM

SMILES: Cc1cc(OCCCc2c3n(c4c(-c5c(C)ncnc5C)c(Cl)ccc24)[C@H](C)CN(c2cc(OCCN4CCOCC4)cc4cc(C(=O)O)n(C)c24)C3=O)cc(C)c1Cl [Example 558, (R)-7-(7-chloro-10-(3-(4-chloro-3,5-dimethylphenoxy)propyl)-6-(4,6-dimethylpyrimidin-5-yl)-4-methyl-1-oxo-3,4-dihydropyrazino[1,2-a]indol-2(1H)-yl)-1-methyl-5-(2-morpholinoethoxy)-1H-indole-2-carboxylic acid]
- pKi [1]: > 9.70
- GI50 [2, 3]: 0.31 µM

SMILES: COCCn1cc(N2C[C@@H](C)n3c(c(CCCOc4cc(C)c(Cl)c(C)c4)c4ccc(Cl)c(-c5c(C)nc(CN6CCN(C)CC6)nc5C)c43)C2=O)c2cc(C(=O)O)ccc21 [Example 559, (R)-3-(7-chloro-10-(3-(4-chloro-3,5-dimethylphenoxy)propyl)-6-(4,6-dimethyl-2-((4-methylpiperazin-1-yl)methyl)pyrimidin-5-yl)-4-methyl-1-oxo-3,4-dihydropyrazino[1,2-a]indol-2(1H)-yl)-1-(2-methoxyethyl)-1H-indole-5-carboxylic acid]
- pKi [1]: > 9.70
- GI50 [2, 3]: 0.43 µM

SMILES: COCCn1cc(C(=O)O)c2c(OC)ccc(N3C[C@@H](C)n4c(c(CCCOc5cc(C)c(Cl)c(C)c5)c5ccc(Cl)c(-c6c(C)nn(C)c6C)c54)C3=O)c21 [Example 625, (R)-7-(7-chloro-10-(3-(4-chloro-3,5-dimethylphenoxy)propyl)-4-methyl-1-oxo-6-(1,3,5-trimethyl-1H-pyrazol-4-yl)-3,4-dihydropyrazino[1,2-a]indol-2(1H)-yl)-4-methoxy-1-(2-methoxyethyl)-1H-indole-3-carboxylic acid]
- pKi [1]: 9.66
- GI50 [2, 3]: 0.42 µM
